Measured values published in PubChem BioAssay (NCI).
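Cultured in 96-well plates, cells were exposed to test compound for 48 hours across five concentrations. Here, GI50 denotes the concentration required for 50% inhibition of growth. TGI: concentration producing complete growth inhibition.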 Where a SMILES comes first, the peptide text is derived from it. The star is where a group is joined. ONb = O=[N+]([O-])c1ccc(CO*)cc1; Boc = CC(C)(C)OC(=O)*

Columns and labels:
Experiment in all cases: growth of human tumour cells (NCI), 48 h
UACC-257 melanoma = test system: UACC-257 melanoma
PC-3 prostate = test system: PC-3 prostate
SK-MEL-5 melanoma = test system: SK-MEL-5 melanoma
SF-268 CNS = test system: SF-268 CNS
TK-10 renal = test system: TK-10 renal
OVCAR-3 ovarian = test system: OVCAR-3 ovarian
SK-OV-3 ovarian = test system: SK-OV-3 ovarian
LOX IMVI melanoma = test system: LOX IMVI melanoma
786-0 renal = test system: 786-0 renal
SNB-75 CNS = test system: SNB-75 CNS

SMILES	TGI (UACC-257 melanoma) [µM]	TGI (PC-3 prostate) [µM]	TGI (SK-MEL-5 melanoma) [µM]	TGI (SF-268 CNS) [µM]	TGI (TK-10 renal) [µM]	TGI (OVCAR-3 ovarian) [µM]	TGI (SK-OV-3 ovarian) [µM]	TGI (LOX IMVI melanoma) [µM]	TGI (786-0 renal) [µM]	TGI (SNB-75 CNS) [µM]	GI50 (UACC-257 melanoma) [µM]	GI50 (PC-3 prostate) [µM]	GI50 (TK-10 renal) [µM]	GI50 (OVCAR-3 ovarian) [µM]	GI50 (SNB-75 CNS) [µM]	GI50 (SK-OV-3 ovarian) [µM]	GI50 (LOX IMVI melanoma) [µM]	GI50 (SK-MEL-5 melanoma) [µM]	GI50 (SF-268 CNS) [µM]
CCCCNC(=S)Nc1nc(C(=O)NNC(=S)NC2CCCCC2)cs1	> 100	> 100	> 100	> 100	> 100	> 100	> 100	> 100	> 100	–	–	–	–	–	–	–	–	–	–
CC(C)(C)c1cc(C2=NN(c3ccccc3)C(c3ccccc3)C2)cc(C(C)(C)C)c1O (configuration not stated)	> 100	> 100	> 100	> 100	> 100	> 100	> 100	> 100	> 100	> 100	–	–	–	–	–	–	–	–	–
N#Cc1c(N)sc2c1-c1ccccc1OC2	> 100	> 100	> 100	> 100	> 100	61.7	> 100	> 100	–	–	–	–	–	–	–	–	–	–	–
CSc1c(C#N)c(N)nc2c(N=Nc3ccc(Cl)cc3)c(N)nn12	10.2	7.38	35	5.7	26.8	3.38	67.1	2.87	7.1	15.3	–	–	–	–	–	–	–	–	–
N#CCCN(CCC#N)c1ccc(/C=C2\N=C(c3ccccc3)N(NC(N)=S)C2=O)cc1	> 100	> 100	> 100	> 100	> 100	> 100	> 100	> 100	> 100	–	–	–	–	–	–	–	–	–	–
COc1cc(/C=C/C(=O)c2c(C)nc3ccccc3c2C)ccc1OCCCOc1cc2c(cc1OC)C(=O)N1CCC[C@H]1C=N2	0.0838	1.15	–	–	0.0682	0.0556	1.13	0.0602	–	0.114	0.0269	0.0326	0.0257	0.0247	0.0226	0.064	0.0193	–	–
CCCCN1C(=O)c2c(-c3sccc3N)sc(-c3sccc3N)c2C1=O	> 100	> 100	> 100	> 74.3	72.5	78.5	35.8	> 100	21.1	34.6	–	–	–	–	–	–	–	–	–
Cn1c(-c2ccccc2)cc2c3ccsc3c3ccsc3c21	> 100	> 100	> 100	> 100	> 100	> 100	> 100	> 100	> 100	> 100	–	–	–	–	–	–	–	–	–
O=C(CCCCCCC(=O)Nc1cccnc1)NO	87.7	> 100	–	> 61	> 100	18.7	> 71.8	38.9	> 100	> 100	–	–	–	–	–	–	–	–	–
CO/N=C(\C)COc1ccc2c(=O)c(-c3ccccc3)coc2c1	97.3	> 100	> 100	71	42.9	74.2	80	> 100	–	81.6	25.6	34.5	20	30.2	20	21.9	42.5	> 100	24.5
Cc1ccc(O)c(-c2cc(-c3cccc(Cl)c3)c(C#N)c(N)n2)c1	–	83.4	29.2	51.3	44.6	> 100	66.2	30.8	46	–	–	–	–	–	–	–	–	–	–
N=c1c2c(-c3ccccc3)c[nH]c2ncn1N	> 100	> 100	> 100	–	> 100	> 100	> 100	> 100	> 100	> 100	–	–	–	–	–	–	–	–	–
Cc1ccc(-n2[nH]nc(C#N)c2=O)cc1	> 100	> 100	> 100	> 100	> 100	> 100	> 100	–	> 100	> 100	–	–	–	–	–	–	–	–	–
CCCCCCCCCCCCCC[n+]1ccc2c(C)c3c(c(C)c2c1)c1cc(O)ccc1n3CC	–	1.33	0.724	–	1.54	–	0.849	–	–	1.05	–	0.356	0.337	–	0.213	0.28	–	0.258	–
CC1OC2(CC(OCc3ccccc3)C1OCc1ccccc1)OCCO2 (configuration not stated)	> 100	> 100	> 100	> 100	> 100	> 100	> 100	> 100	> 100	–	–	–	–	–	–	–	–	–	–
COc1ccc(/C=C2\N=C(c3ccccc3)N(N=C3NC(=O)CC(=O)N3)C2=O)cc1	> 100	> 100	> 100	> 100	> 100	> 100	> 100	–	> 100	> 100	–	–	–	–	–	–	–	–	–
O=C(O)c1cn2c3c(cc(N4CCN(CCO)CC4)cc3c1=O)SCC2	> 100	–	> 100	> 100	–	> 100	> 100	> 100	–	> 66.5	–	–	–	–	–	–	–	–	–

SMILES	TGI (UACC-257 melanoma) [µM]	TGI (PC-3 prostate) [µM]	TGI (SK-MEL-5 melanoma) [µM]	TGI (SF-268 CNS) [µM]	TGI (TK-10 renal) [µM]	TGI (OVCAR-3 ovarian) [µM]	TGI (SK-OV-3 ovarian) [µM]	TGI (LOX IMVI melanoma) [µM]	TGI (786-0 renal) [µM]	TGI (SNB-75 CNS) [µM]	GI50 (UACC-257 melanoma) [µM]	GI50 (PC-3 prostate) [µM]	GI50 (TK-10 renal) [µM]	GI50 (OVCAR-3 ovarian) [µM]	GI50 (SNB-75 CNS) [µM]	GI50 (SK-OV-3 ovarian) [µM]	GI50 (LOX IMVI melanoma) [µM]	GI50 (SK-MEL-5 melanoma) [µM]	GI50 (SF-268 CNS) [µM]
COC(=O)C1=C(O)C(C(=O)OC)[C@]2(O)[C@H](C(=O)OC)[C@H]1C[C@@H](c1c(Cl)cccc1Cl)[C@H]2C(=O)OC (some centres not stated)	6.08	10.5	3.02	12.9	–	7.87	14.2	3.69	3.48	8.7	–	–	–	–	–	–	–	–	–
COc1ccc(OC)c(CC2CCc3nc(N)nc(N)c3C2)c1 (configuration not stated)	34.4	52.7	28.9	–	> 94	> 100	> 100	25.6	4.46	27.2	–	–	–	–	–	–	–	–	–
N#C/C(=C\c1cc(Cl)cc(Cl)c1)c1ccccn1	> 100	> 100	> 100	> 100	> 100	> 100	> 100	–	> 100	36	–	–	–	–	–	–	–	–	–
COC(=O)/C=C/c1ccc2c(c1)CC1(C2)Cc2cc3c(cc2C1=O)CCC3 (configuration not stated)	> 100	> 100	> 100	> 100	> 100	43.7	–	> 100	68.7	71.3	–	–	–	–	–	–	–	–	–
CCCCCCOP(=O)(OCCCCCC)C(NC(=O)OCC)(C(F)(F)F)C(F)(F)F	–	> 100	44.1	> 100	> 100	> 100	> 100	56.1	–	> 100	–	–	–	–	–	–	–	–	–
CN1CCC(CN2c3ccccc3Sc3ccccc32)CC1	27.8	–	18.5	29	29.2	29	30.2	26.4	27.3	–	–	–	–	–	–	–	–	–	–
CC(C)CC(NC(=O)OC(C)(C)C)C(=O)NC(CCC(=O)OCc1ccc([N+](=O)[O-])cc1)C(=O)OCc1ccc([N+](=O)[O-])cc1 (stereo not drawn) (Boc-Leu-Glu(ONb)-ONb; configuration not given here)	> 100	> 100	–	39.3	> 100	77.4	–	63.8	71.5	31.9	–	–	–	–	–	–	–	–	–
CN(C)c1ccc(C(Cc2ccc3ccccc3n2)Cc2ccc3ccccc3n2)cc1	–	–	–	–	> 100	–	–	–	–	> 100	–	–	4.93	–	3.24	–	–	–	–
O=C(Cc1nccc2c1[nH]c1ccccc12)OC1C#CCSCC#C/C=C\1 (configuration not stated)	> 100	> 100	> 100	> 100	> 100	> 100	> 100	> 100	> 100	–	–	–	–	–	–	–	–	–	–
O=C1/C(=C/c2ccc(Cl)cc2)N=C(c2ccccc2)N1CCc1cccs1	> 100	> 100	33.2	> 100	> 100	> 100	> 100	> 100	–	> 100	36	13	27.9	16.7	50.9	55.9	8.52	15.6	31.7
Cn1c2ccccc2c2c(=O)[nH]c(=O)[nH]c21	> 100	–	> 100	> 100	> 100	> 100	> 100	> 100	> 100	> 100	–	–	–	–	–	–	–	–	–
CCc1ccc2nc(-c3ccc(O)cc3)sc2c1	35.7	29	34.6	37.8	35.7	28.1	32.3	33.6	–	–	–	–	–	–	–	–	–	–	–
O=C(/C=C/c1ccc(/C=C/C(=O)c2ccc(O)cc2)cc1)c1ccc(O)cc1	> 100	> 100	> 100	> 100	> 100	> 100	–	> 100	> 100	> 100	–	–	–	–	–	–	–	–	–
CC1(CCCO)CCCCCCCCCC(C)(CCCO)C1=O (configuration not stated)	> 100	> 100	> 100	> 100	–	> 100	> 100	> 100	> 100	> 100	–	–	–	–	–	–	–	–	–
COC1(OC)CC(CO)(CNc2cc(Cl)nc(N)n2)C1	> 100	> 100	> 100	> 100	> 100	> 100	> 100	> 100	> 100	–	–	–	–	–	–	–	–	–	–
Nc1nc(N)c2ncn(Cc3ccccc3CCl)c2n1	> 100	> 100	> 100	> 100	> 100	> 100	> 100	–	> 100	> 100	–	–	–	–	–	–	–	–	–
